Assay results published in patent publication US10000486B2 (priority 2012, dated 2018).
Counter-ions that a name gives are not always drawn. Like-named read-outs stand apart in the source and are kept apart here.

Legend:
[1] = tested on: Machupo pseudotyped virus; experiment: organism not typed; format: cell-based
[2] = tested on: VSVg pseudotyped virus; experiment: organism not typed; format: cell-based
[3] = tested on: Sabiá pseudotyped virus; experiment: organism not typed; format: cell-based; settings: read-out: Activity (EC50 in μM vs. pseudotyped virus) Sabiá
[4] = tested on: Lassa GP-pseudotyped-virus; experiment: microbe, parasite or virus in culture; format: cell-based, Lassa fever virus; settings: Human immunodeficiency virus 1, read-out: Activity (EC50 in μM vs. pseudotyped virus) Lassa
[5] = tested on: Junín pseudotyped virus; experiment: organism not typed; format: cell-based; settings: read-out: Activity (EC50 in μM vs. pseudotyped virus) Junín
[6] = tested on: Guanarito pseudotyped virus; experiment: organism not typed; format: cell-based; settings: read-out: Activity (EC50 in μM vs. pseudotyped virus) Guanarito
[7] = read-out: Activity (EC50 in μM vs. pseudotyped virus) Machupo
[8] = read-out: Activity (EC50 in μM vs. pseudotyped virus) VSVg

Row | Compound | EC50 [1, 7] [µM] | EC50 [2, 8] [µM] | EC50 [3] [µM] | EC50 [4] [µM] | EC50 [5] [µM] | EC50 [6] [µM] | EC50 ([1]; read-out: EC50 (Note 1, Machupo)) [µM] | EC50 ([2]; read-out: EC50 (Note 2, VSVg)) [µM]
1 | CC(C)Oc1ccc(-n2cnc3cc(/C=C\c4ccc(C(=O)O)cc4)ccc32)cc1 [Compound 45, 4-[(Z)-2-[1-(4-isopropoxyphenyl)benzimidazol-5-yl]vinyl]benzoic acid] | < 1 | > 50 | 1 to 10 | 10 to 50 | < 1 | – | – | –
2 | CCc1ccc(/C=C\c2ccc3c(c2)ncn3-c2ccc(OC(C)(C)C)cc2)cc1 [Compound 15, 1-(4-tert-butoxyphenyl)-5-[(Z)-2-(4-ethylphenyl)-vinyl]benzimidazole] | – | 10 to 50 | < 1 | < 1 | – | – | – | –
3 | CC(C)Oc1ccc(-n2cnc3cc(/C=C\c4ccc(C(C)(C)C)cc4)ccc32)cc1 [Compound 7, 5-[(Z)-2-(4-tert-butylphenyl)vinyl]-1-(4-isopropoxyphenyl)-benzimidazole] | < 1 | 10 to 50 | < 1 | < 1 | < 1 | – | – | –
4 | COc1ccc(-n2cnc3cc(OCc4ccc(C(C)C)cc4)cnc32)cc1 [Compound 32, 6-[(4-isopropyl-phenyl)methoxy]-3-(4-methoxyphenyl)imidazo[4,5-b]pyridine] | < 1 | 10 to 50 | < 1 | < 1 | < 1 | – | – | –
5 | CCOc1ccc(-n2cnc3cc(CCc4ccc(CC)cc4)ccc32)cc1 [Compound 27, 1-(4-ethoxyphenyl)-5-[2-(4-ethylphenyl)-ethyl]benzimidazole] | < 1 | > 50 | < 1 | < 1 | < 1 | < 1 | – | –
6 | CCOc1ccc(-n2cnc3cc(/C=C\c4ccc(C(C)(C)C)cc4)ccc32)cc1 [Compound 5, 5-[(Z)-2-(4-tert-butylphenyl)vinyl]-1-(4-ethoxyphenyl)benzimidazole] | < 1 | 10 to 50 | < 1 | < 1 | < 1 | – | – | –
7 | CCOc1ccc(-n2c[n+]([O-])c3cc(NCc4ccc(CC)cc4)ccc32)cc1 [Compound 67, 1-(4-ethoxyphenyl)-N-[(4-ethylphenyl)-methyl]-3-oxido-benzimidazol-3-ium-5-amine] | < 1 | 10 to 50 | – | < 1 | < 1 | – | – | –
8 | CCOc1ccc(-n2cnc3cc(/C=C\c4ccc(C(C)(C)O)cc4)ccc32)cc1 [Compound 61, 2-[4-[(Z)-2-[1-(4-ethoxyphenyl)benzimidazol-5-yl]vinyl]phenyl]propan-2-ol] | < 1 | 10 to 50 | < 1 | < 1 | < 1 | – | – | –
9 | CCOc1ccc(-c2cnc3cc(NCc4ccc(CC)cc4)ccn23)cc1 [Compound 65, 3-(4-ethoxyphenyl)-N-[(4-ethylphenyl)-methyl]imidazo[1,2-a]pyridin-7-amine] | < 1 | 1 to 10 | – | < 1 | < 1 | – | – | –
10 | CCOc1ccc(-n2cnc3cc(C#Cc4ccc(CC)cc4)cnc32)cc1 [Compound 26, 3-(4-ethoxyphenyl)-6-[2-(4-ethylphenyl)-ethynyl]imidazo[4,5-b]pyridine] | 10 to 50 | 10 to 50 | – | 1 to 10 | 1 to 10 | – | – | –
11 | CC(C)Oc1ccc(-n2cnc3cc(/C=C\c4ccc(C(C)(C)N)cc4)ccc32)cc1 [Compound 60, 2-[4-[(Z)-2-[1-(4-isopropoxyphenyl)benzimidazol-5-yl]vinyl]phenyl]propan-2-amine] | < 1 | > 50 | – | < 1 | < 1 | – | – | –
12 | CCOc1ccc(-n2cnc3cc(CNc4ccc(CC)cc4)ccc32)cc1 [Compound 34, N-[[1-(4-ethoxyphenyl)benzimidazol-5-yl]methyl]-4-ethyl-aniline] | < 1 | 10 to 50 | – | < 1 | < 1 | – | – | –
13 | CCOc1ccc(-n2cnc3cc(/C=C/c4ccc(C(F)(F)F)cc4)ccc32)cc1 [Compound 12, 1-(4-ethoxyphenyl)-5-[(E)-2-[4-(trifluoromethyl)phenyl]vinyl]benzimidazole] | – | – | – | 10 to 50 | 10 to 50 | – | 51 | 196
14 | CCOc1ccc(-c2c[nH]c3cc(NCc4ccc(CC)cc4)ccc23)cc1 [Compound 64, 3-(4-ethoxyphenyl)-N-[(4-ethylphenyl)-methyl]-1H-indol-6-amine] | < 1 | 10 to 50 | – | < 1 | < 1 | – | – | –
15 | CCOc1ccc(-n2cnc3cc(/C=C\c4ccc(CC)cc4)ccc32)nc1 [Compound 19, 1-(5-ethoxy-2-pyridyl)-5-[(Z)-2-(4-ethylphenyl)vinyl]benzimidazol hydrochloride] | < 1 | 10 to 50 | < 1 | < 1 | < 1 | – | – | –
16 | CC(C)(C)Oc1ccc(-n2cnc3cc(/C=C\c4ccc(C(C)(C)C)cc4)ccc32)cc1 [Compound 17, 1-(4-tert-butoxyphenyl)-5-[(Z)-2-(4-tert-butylphenyl)vinyl]benzimidazole] | – | 10 to 50 | < 1 | < 1 | – | – | – | –
17 | CC(C)Oc1ccc(-n2cnc3cc(/C=C\c4ccc(C5(O)CNC5)cc4)ccc32)cc1 [Compound 58, 3-[4-[(Z)-2-[1-(4-isopropoxyphenyl)benzimidazol-5-yl]vinyl]phenyl]azetidin-3-ol] | < 1 | 10 to 50 | – | 1 to 10 | < 1 | – | – | –
18 | CCOc1ccc(-n2cnc3cc(/C=C\c4ccc(CC)cc4)cnc32)cc1 [Compound 22, 3-(4-ethoxyphenyl)-6-[(Z)-2-(4-ethylphenyl)vinyl]imidazo[4,5-b]pyridine] | < 1 | 10 to 50 | – | < 1 | < 1 | – | – | –
19 | COc1ccc(-n2cnc3cc(OCc4ccc(C(C)C)cc4)ccc32)cc1 [Compound 30, 5-[(4-isopropylphenyl)methoxy]-1-(4-methoxyphenyl)benzimidazole] | < 1 | 10 to 50 | – | < 1 | < 1 | – | – | –
20 | CCOc1ccc(-n2cnc3cc(/C=C\c4ccc(C(C)(C)C)cc4)ccc32)nc1 [Compound 21, 5-[(Z)-2-(4-tert-butylphenyl)vinyl]-1-(5-ethoxy-2-pyridyl)benzimidazole hydrochloride] | < 1 | 10 to 50 | < 1 | < 1 | < 1 | – | – | –
21 | CCC(C)(O)c1ccc(/C=C\c2ccc3c(c2)ncn3-c2ccc(OC(C)C)cc2)cc1 (stereo not drawn) [Compound 50, 2-[4-[(Z)-2-[1-(4-isopropoxyphenyl)benzimidazol-5-yl]vinyl]phenyl]butan-2-ol] | < 1 | 1 to 10 | – | < 1 | < 1 | – | – | –
22 | COc1ccc(-n2cnc3cc(/C=C\c4ccc(C(C)C)cc4)cnc32)cc1 [Compound 24, 6-[(Z)-2-(4-isopropylphenyl)vinyl]-3-(4-methoxyphenyl)imidazo[4,5-b]pyridine] | < 1 | 10 to 50 | < 1 | < 1 | < 1 | – | – | –
23 | CC(C)Oc1ccc(-n2cnc3cc(/C=C\c4ccc(C(C)O)cc4)ccc32)cc1 (stereo not drawn) [Compound 51, 1-[4-[(Z)-2-[1-(4-isopropoxyphenyl)benzimidazol-5-yl]vinyl]phenyl]ethanol] | < 1 | 1 to 10 | – | < 1 | < 1 | – | – | –
24 | CC(C)Oc1ccc(-n2cnc3cc(/C=C\c4ccc(C5(O)CCC5)cc4)ccc32)cc1 [Compound 52, 1-[4-[(Z)-2-[1-(4-isopropoxyphenyl)benzimidazol-5-yl]vinyl]phenyl]cyclobutanol] | < 1 | 1 to 10 | – | < 1 | < 1 | – | – | –
25 | CC(C)Oc1ccc(-n2cnc3cc(/C=C\c4ccc(C5(O)COC5)cc4)ccc32)cc1 [Compound 53, 3-[4-[(Z)-2-[1-(4-isopropoxyphenyl)benzimidazol-5-yl]vinyl]phenyl]oxetan-3-ol] | < 1 | 1 to 10 | – | < 1 | < 1 | – | – | –
26 | CCOc1ccc(-n2cnc3cc(/C=C/c4ccc(OC(F)(F)F)cc4)ccc32)cc1 [Compound 10, 1-(4-ethoxyphenyl)-5-[(E)-2-[4-(trifluoromethoxy)phenyl]vinyl]benzimidazole] | 1 to 10 | > 50 | – | < 1 | < 1 | – | – | –
27 | CC(C)Oc1ccc(-n2cnc3cc(/C=C\c4ccc(C(C)(C)O)cc4)ccc32)cc1 [Compound 38, 2-[4-[(Z)-2-[1-(4-isopropoxyphenyl)benzimidazol-5-yl]vinyl]phenyl]-propan-2-ol] | < 1 | 1 to 10 | – | < 1 | < 1 | – | – | –
28 | CCc1ccc(/C=C\c2ccc3c(c2)ncn3-c2ccc(OC(C)C)cc2)cc1 [Compound 9, 5-[(Z)-2-(4-ethylphenyl)vinyl]-1-(4-isopropoxyphenyl)-benzimidazole] | < 1 | 10 to 50 | < 1 | < 1 | < 1 | – | – | –
29 | CCc1ccc(/C=C/c2ccc3c(c2)ncn3-c2ccc(OC(C)C)cc2)cc1 [Compound 8, 5-[(E)-2-(4-ethylphenyl)vinyl]-1-(4-isopropoxyphenyl)-benzimidazole] | < 1 | 10 to 50 | – | < 1 | < 1 | – | – | –
30 | C=C(C)c1ccc(/C=C\c2ccc3c(c2)ncn3-c2ccc(OC(C)C)cc2)cc1 [Compound 40, 5-[(Z)-2-(4-isopropenylphenyl)-vinyl]-1-(4-isopropoxyphenyl)-benzimidazole] | < 1 | 10 to 50 | – | < 1 | < 1 | – | – | –
